Converted amounts (≈) assume the structure as drawn. “And” between values parts separate entries of the source, which are not always exact repeats. Identical values can stand only once. Like-named read-outs stand apart in the source and are kept apart here.
What was measured:
[1] = system: Primary Skin Fibroblasts cells; experiment: Cell culture toxicity, Alamar Blue HS fluorescence; assay type: cell-based; conditions: Suppl Fig 9, Primary Skin Fibroblasts cells
[2] = Dermal pharmacokinetics, serum concentration after topical application; assay type: in vivo, Sprague Dawley rats
Description: We determined that the maximum concentration present in serum was 1.02 μg/mL at 7.0 h after application with a time½ of 8.7 h. By 24 h the concentration of DNM0547 had decreased to 0.06 μg/mL and by 48 h was 0.03 μg/mL (Supplementary Fig. 8).
Rat PK. […]
Supplementary Figure 8. Dermal PK of DNM0547. a, 2% DNM0547 was applied to shaved skin of Sprague Dawley rats and DNM0547 concentration in serum was determined over time (n=5). b, PK parameters for DNM0547 in serum. CV, coefficient variation was determined using Graphpad Prism.
(1 picture or pasted object on this page, not shown here)

[3] = Histopathology (H&E) of treated rabbit ischemic ear wounds, dermal toxicity
Description: Wounds were excised, fixed, and routine H&E staining was performed. Wounds were examined for pathology and scored in a blinded manner.
Post-wounding, under anesthesia, animals were euthanized with an intravenous injection of Beuthanasia-D at a dosage of 150 mg/kg of body weight. Specimens including the entire wound, along with ~2–3 mm of the normal unwounded skin margins were harvested. Each ear wound specimen was sectioned into halves. For one half of the wound, the wound was placed into a container with 10% neutral buffered formalin and processed for routine histological evaluation. Wounds were scored on a scale of 0–4 at the wound site for erythema, edema, inflammation, granulation, angiogenesis, and epithelialization. Wounds were characterized in a blinded manner by a board-certified member of the College of American Pathologists.

wild type (K12) E. coli = experiment: MIC, wild type E. coli; assay type: cell-based; conditions: Escherichia coli
Text: The outer membrane of Gram-negative bacteria is a robust permeability barrier that prevents many antibiotics from entering Gram-negative cells[46],[47]. The outer leaflet of this outer membrane is primarily composed of the unique lipid lipopolysaccharide (LPS). Strains of E. coli with point mutations in genes coding for LPS biosynthetic enzymes have been isolated that enable some antibiotics to effectively pass through the outer membrane enabling activity against these strains of E. coli[48]–[54]; one such strain is E. coli (D22) which contains a point mutation in the lpxC gene.
The medium employed for the assay was Mueller Hinton II Broth (MHB II; Becton-Dickinson, Sparks, MD, USA). Agar plates used for the organisms were trypticase soy agar plus 5% sheep blood (BD; Sparks, MD, USA). MIC assay plates were prepared using the CLSI broth microdilution procedure. Automated liquid handlers (Multidrop 384, Biomek 2000 and Biomek FX) were used to conduct serial dilutions and liquid transfers. A standardized inoculum of each organism was prepared per CLSI methods. Suspensions were prepared to equal a 0.5 McFarland standard, followed by a 1:20 dilution in test media. […] The microplates were viewed from the bottom using a plate viewer and the MIC was read. The MIC was recorded as the lowest concentration of drug that inhibited visible growth of the organism. […]

in vitro = assay type: cell-based
Description: (§1) Stock solutions of the test agents were prepared in DMSO (40 mg/mL) and stored at −20 °C until use. AlamarBlue HS™ cell viability reagent was acquired from Invitrogen (Cat # A50100, Carlsbad, CA). COS7 and HEK293 cells (obtained from ATCC) were cultured and tested at 37 °C in a 5% CO2/100% humidity environment in DMEM media supplemented with 10% fetal bovine serum. Cells were trypsinized, centrifuged, resuspended in cell media, counted on a hemacytometer, and diluted to an appropriate cell density to give the desired number of cells per 300 μl media. Cells were then loaded into 48-well cell culture plates (3548; Corning, Inc.); 300 μl/well at 60,000 cells per well. The cell density was determined in preliminary tests to give linear AlamarBlue HS™ readings over a 3.5 h period for HEK293 cells and 2 h period for COS7 cells after 2 days of growth; 2 wells per plate were loaded with 300 μl/well of cell-free media to provide background readings. Plates were cultured overnight, after which test agent solutions were prepared in media at the highest test concentration (100 ug/mL) and at five serial dilutions, each containing 0.25% DMSO and 0.125% Kolliphor® EL (Cat# 27963, Sigma Aldrich). The compounds concentrations were then loaded in separate columns via 300 μl/well. […] Normalized values representing the amount of AlamarBlue converted to its […] form were calculated for each well using background-corrected absorbances as described by the Alamar-Blue HS protocol information packet available from Invitrogen Technical Support. The fraction of control viability for each agent concentration with each cell line was then determined by the ratio of normalized values for the treated wells to the control wells. […] Values were determined by linear interpolation of fraction of control growth against concentration for the test agent concentrations.

HEK293 cells = experiment: cells; assay type: cell-based; conditions: Homo sapiens, Hek293 cells, 24 hrs
Description: as §1

COS7 cells = experiment: cells; assay type: cell-based; conditions: for IC50: Chlorocebus aethiops, COS-7, COS7 cells, 24 hrs
Description: as §1

[4] = 2% on shaved skin, serum, mean, n=5
[5] = read-out: IC50 (cell viability)
[6] = read-out: Log IC50 (cell viability) (converted)

Question: For `CC(C)c1cc(Cl)ccc1-c1cc(-c2nnn[nH]2)c(-c2ccc(Cl)cc2C(C)C)s1` [DNM0547], which “Fluorescence (FI)” value ([1]; Conc. 2 ng/ml) is on record?
Answer: 921 FI and 814 FI and 995 FI

Question: What about the “Fluorescence (FI)” value ([1]; Conc. 100 ng/ml) of the same compound?
Answer: 911 FI and 909 FI and 816 FI and 747 FI

Question: And the “Fluorescence (FI)” value ([1]; Conc. 2500 ng/ml)?
Answer: 895 FI and 904 FI and 819 FI and 790 FI

Question: What about the “Fluorescence (FI)” value ([1]; Conc. 5000 ng/ml) of the same compound?
Answer: 907 FI and 820 FI and 922 FI and 909 FI

Question: What about the “Fluorescence (FI)” value ([1]; Conc. 20000 ng/ml) of the same compound?
Answer: 577 FI and 548 FI and 542 FI and 552 FI

Question: What about the “Fluorescence (FI)” value ([1]; Conc. 40000 ng/ml) of the same compound?
Answer: 62 FI and 57 FI and 54 FI

Question: What about the “Fluorescence (FI)” value ([1]; Conc. 100000 ng/ml) of the same compound?
Answer: 7 FI and 5 FI

Question: And the “maximum concentration present in serum” value ([2]; 2% applied topically)?
Answer: 1.02 µg/mL

Question: And the Concmax [2, 4]?
Answer: 1.02 µg/mL

Question: And the Time1/2 [2, 4]?
Answer: 8.78 h and 8.7 h

Question: And the Timemax [2, 4]?
Answer: 7.00 h and 7.0 h

Question: What about the concentration at 6 h ([2]; Sprague Dawley, rat, in vivo, 2 %, Suppl Fig 8, Hour 6, individual animals, read-out: DNM0547 conc) of the same compound?
Answer: 0.261 µg/mL

Question: What about the concentration at 12 h ([2]; Sprague Dawley, rat, in vivo, 2 %, Suppl Fig 8, Hour 12, individual animals, read-out: DNM0547 conc) of the same compound?
Answer: 0.386 µg/mL

Question: What about the Tmax ([2]; Sprague Dawley, rat, serum, topical or ocular, 2% applied topically, read-out: time of maximum serum concentration after application) of the same compound?
Answer: 7 h

Question: What about the concentration at 24 h ([2]; Sprague Dawley, rat, serum, topical, 2 %, 2% applied topically, 24 h) of the same compound?
Answer: 0.06 µg/mL

Question: And the concentration at 48 h ([2]; Sprague Dawley, rat, serum, topical, 2 %, 2% applied topically, 48 h)?
Answer: 0.03 µg/mL

Question: And the “DNM0547 conc” value ([2]; Suppl Fig 8, Hour 3, individual animals)?
Answer: 387 ng/mL and 281 ng/mL and 713 ng/mL and 1147 ng/mL and 236 ng/mL and 356 ng/mL

Question: And the “DNM0547 conc” value ([2]; Suppl Fig 8, Hour 6, individual animals)?
Answer: 449 ng/mL and 1172 ng/mL and 560 ng/mL and 656 ng/mL and 1620 ng/mL

Question: What about the “DNM0547 conc” value ([2]; Suppl Fig 8, Hour 9, individual animals) of the same compound?
Answer: 623 ng/mL and 414 ng/mL and 681 ng/mL and 201 ng/mL and 177 ng/mL and 767 ng/mL

Question: And the “DNM0547 conc” value ([2]; Suppl Fig 8, Hour 12, individual animals)?
Answer: 477 ng/mL and 879 ng/mL and 564 ng/mL and 277 ng/mL and 158 ng/mL

Question: What about the “DNM0547 conc” value ([2]; Suppl Fig 8, Hour 24, individual animals) of the same compound?
Answer: 65 ng/mL and 33 ng/mL and 92 ng/mL and 38 ng/mL and 45 ng/mL and 60 ng/mL

Question: What about the “DNM0547 conc” value ([2]; Suppl Fig 8, Hour 48, individual animals) of the same compound?
Answer: 46 ng/mL and 21 ng/mL and 55 ng/mL and 17 ng/mL and 16 ng/mL and 14 ng/mL

Question: And the “toxicity to dermal cells, histopathology” value ([3]; 2% cream, 18 days of exposure of the rabbit ear wound)?
Answer: no indication of toxicity

Question: And the “erythema, edema, angiogenesis and epithelization scores” value ([3]; 2% cream, 18 days, compared to 2% mupirocin or cream control)?
Answer: improved

Question: What about the Angiogenesis ([3]; Suppl Fig 7, score per wound) of the same compound?
Answer: 1 and 2

Question: And the Edema ([3]; Suppl Fig 7, score per wound)?
Answer: 1 and 2

Question: And the Erythema ([3]; Suppl Fig 7, score per wound)?
Answer: 1 and 2

Question: And the Granulation ([3]; Suppl Fig 7, score per wound)?
Answer: 2 and 1

Question: And the Inflammation ([3]; Suppl Fig 7, score per wound)?
Answer: 2 and 3 and 4

Question: And the MIC (wild type (K12) E. coli)?
Answer: 256 mg/L (≈ 560 µM)

Question: What about the CC50 at 24 h (in vitro; African green monkey) of the same compound?
Answer: 21 mg/L (≈ 45.9 µM)

Question: And the CC50 at 24 h (in vitro; human)?
Answer: 41 mg/L (≈ 89.6 µM)

Question: What about the IC50 (HEK293 cells; [5]) of the same compound?
Answer: 41.5 mg/L (≈ 90.8 µM)

Question: And the IC50 (HEK293 cells; [6])?
Answer: 41.5 mg/L (≈ 90.7 µM)

Question: And the IC50 (COS7 cells; [5])?
Answer: 21.2 mg/L (≈ 46.3 µM)

Question: And the IC50 (COS7 cells; [6])?
Answer: 21.2 mg/L (≈ 46.3 µM)

Question: And the “Fluorescence (FI)” value (COS7 cells; Suppl Fig 9, COS7 cells, Alamar Blue HS, Conc. 40000 ng/ml)?
Answer: 261 FI
